The values that follow come from patent US20250092039A1, “GLUTARIMIDE-CONTAINING PAN-KRAS-MUTANT DEGRADER COMPOUNDS AND USES THEREOF” (Tiger Biotherapeutics Inc., priority 2022, published 2025).

One assay deals with KRAS G12V (Homo sapiens (Human), UniProt P01116, G12V). In words: KRAS G12V degradation in SW620 cells (Western blot, DC50). In kind it is cell-based. The following applies: 24 hours. Summed up: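 SW620 cells (homozygous KRAS G12V) were treated with compound for 24 hours at 37° C. KRAS in lysates was measured by Western blot with fluorescent secondary antibodies and expressed relative to DMSO vehicle (100%). DC50 came from a four-parameter variable-slope dose-response fit.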
Sequence of KRAS G12V (P01116-2 other isoform, or with tags, fused parts or gaps G12V): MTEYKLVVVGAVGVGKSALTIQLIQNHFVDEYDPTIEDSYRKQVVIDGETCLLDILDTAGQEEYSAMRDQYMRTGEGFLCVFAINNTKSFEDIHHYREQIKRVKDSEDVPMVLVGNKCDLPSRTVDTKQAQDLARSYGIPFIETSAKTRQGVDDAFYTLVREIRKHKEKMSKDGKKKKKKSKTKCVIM

A further assay addresses KRAS-G12V/RAF1 (Homo sapiens (Human), UniProt P01116, G12V). Put plainly: KRAS/RAF1 binding inhibition assay (AlphaScreen). An outline of the steps:
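Binding of GppNHp-loaded KRAS G12V to the RAF1 RBD was measured by AlphaScreen with test compound present in 2% DMSO (final), 60 min incubation at 4° C. Signals were converted to % inhibition versus DMSO, and IC50 was obtained by variable-slope nonlinear regression.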

A further assay deals with SW620 cells. Put plainly: 3D cell growth inhibition of SW620 cells carrying endogenous KRAS G12V mutation (CellTiter-Glo 3D, GI50). In kind it is cell-based. The following applies: Homo sapiens, SW-620, 144 h; SW620 cells, 6 days; read-out: SW620 3D cell growth GI50. An outline of the steps: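 SW620 cells (endogenous KRAS G12V) grown in 3D were dosed next day with compound from DMSO stocks at various concentrations, then incubated 6 days at 37° C.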

Sequence of KRAS-G12V/RAF1 (P01116-2 other isoform, or with tags, fused parts or gaps G12V): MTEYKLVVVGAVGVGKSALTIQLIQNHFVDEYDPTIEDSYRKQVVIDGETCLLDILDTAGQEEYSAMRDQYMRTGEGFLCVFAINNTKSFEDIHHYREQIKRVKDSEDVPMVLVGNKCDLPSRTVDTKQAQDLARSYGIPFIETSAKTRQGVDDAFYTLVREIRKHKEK

`CCc1c(F)ccc2cc(O)cc(-c3ncc4c(N5CCC[C@@](C)(O)C5)nc(OCC5(CN6CCC(N7CC8(CN(c9ccc%10c(c9)CN(C9CCC(=O)NC9=O)C%10=O)C8)C7)CC6)CC5)nc4c3F)c12` (stereo partly drawn) [Compound 154, 3-(5-(6-(1-((1-(((7-(8-ethyl-7-fluoro-3-hydroxynaphthalen-1-yl)-8-fluoro-4-((R)-3-hydroxy-3-methylpiperidin-1-yl)pyrido[4,3-d]pyrimidin-2-yl)oxy)methyl)cyclopropyl)methyl)piperidin-4-yl)-2,6-diazaspiro[3.3]heptan-2-yl)-1-oxoisoindolin-2-yl)piperidine-2,6-dione] came in with a half-maximal degradation concentration (DC50) on KRAS G12V of under 1 nM. On KRAS-G12V/RAF1, this compound had an IC50 of under 20 nM. In the assay with SW620 cells, the concentration for 50% growth inhibition (GI50) is under 10 nM.
The like results for `CCc1c(F)ccc2cc(O)cc(-c3ncc4c(N5CCC(O)CC5)nc(OCC5(CN6CCC(CN7CCN(c8ccc9c(c8)CN([C@H]8CCC(=O)NC8=O)C9=O)CC7)CC6)CC5)nc4c3F)c12` [Compound 115, (S)-3-(5-(4-((1-((1-(((7-(8-ethyl-7-fluoro-3-hydroxynaphthalen-1-yl)-8-fluoro-4-(4-hydroxypiperidin-1-yl)pyrido[4,3-d]pyrimidin-2-yl)oxy)methyl)cyclopropyl)methyl)piperidin-4-yl)methyl)piperazin-1-yl)-1-oxoisoindolin-2-yl)piperidine-2,6-dione] were, in that order, over 100 nM, over 200 nM and over 100 nM.
`CCc1c(F)ccc2cc(O)cc(-c3ncc4c(N5CCC[C@@](C)(O)C5)nc(OCC5(CN6CC7(CCC(F)(CN8CCN(c9ccc(C(=O)N[C@H]%10CCC(=O)NC%10=O)c(F)c9)CC8)CC7)C6)CC5)nc4c3F)c12` [Compound 183, N-((S)-2,6-dioxopiperidin-3-yl)-4-(4-((2-((1-(((7-(8-ethyl-7-fluoro-3-hydroxynaphthalen-1-yl)-8-fluoro-4-((R)-3-hydroxy-3-methylpiperidin-1-yl)pyrido[4,3-d]pyrimidin-2-yl)oxy)methyl)cyclopropyl)methyl)-7-fluoro-2-azaspiro[3.5]nonan-7-yl)methyl)piperazin-1-yl)-2-fluorobenzamide] returned a DC50 at KRAS G12V of over 100 nM. For the same compound, the half-inhibitory concentration (IC50) at KRAS-G12V/RAF1 is over 200 nM. Moreover, in the assay on SW620 cells, the GI50 fell in the range of 10 to 100 nM.
The compound `CCc1c(F)ccc2cc(O)cc(-c3ncc4c(N5CCC[C@@](C)(O)C5)nc(OCC5(CN6CC(N7CC(N8CCN(c9ccc%10c(c9)CN([C@H]9CCC(=O)NC9=O)C%10=O)CC8)C7)C6)CC5)nc4c3F)c12` [Compound 137, (S)-3-(5-(4-(1′-((1-(((7-(8-ethyl-7-fluoro-3-hydroxynaphthalen-1-yl)-8-fluoro-4-((R)-3-hydroxy-3-methylpiperidin-1-yl)pyrido[4,3-d]pyrimidin-2-yl)oxy)methyl)cyclopropyl)methyl)-[1,3′-biazetidin]-3-yl)piperazin-1-yl)-1-oxoisoindolin-2-yl)piperidine-2,6-dione] gave a half-maximal degradation concentration (DC50) at KRAS G12V of 1 to 10 nM. This compound also displayed an IC50 at KRAS-G12V/RAF1 of 20 to 200 nM. In the assay on SW620 cells, the concentration for 50% growth inhibition (GI50) is under 10 nM.
For `CCc1c(F)ccc2cc(O)cc(-c3ncc4c(N5CCC[C@@](C)(O)C5)nc(OCC5(CN6CC7(CCC(F)(CN8CCN(c9ccc%10c(c9)CN([C@H]9CCC(=O)NC9=O)C%10=O)CC8)CC7)C6)CC5)nc4c3F)c12` [Compound 178, (S)-3-(5-(4-((2-((1-(((7-(8-ethyl-7-fluoro-3-hydroxynaphthalen-1-yl)-8-fluoro-4-((R)-3-hydroxy-3-methylpiperidin-1-yl)pyrido[4,3-d]pyrimidin-2-yl)oxy)methyl)cyclopropyl)methyl)-7-fluoro-2-azaspiro[3.5]nonan-7-yl)methyl)piperazin-1-yl)-1-oxoisoindolin-2-yl)piperidine-2,6-dione], in that order: under 1 nM, 20 to 200 nM and under 10 nM.
For `CCc1c(F)ccc2cc(O)cc(-c3ncc4c(N5CCOC[C@@](C)(O)C5)nc(OCC5(CN6CCC7(CC6)CC(F)(CN6CCN(c8ccc9c(c8)CN([C@H]8CCC(=O)NC8=O)C9=O)CC6)C7)CC5)nc4c3F)c12` [Compound 175, (S)-3-(5-(4-((7-((1-(((7-(8-ethyl-7-fluoro-3-hydroxynaphthalen-1-yl)-8-fluoro-4-((S)-6-hydroxy-6-methyl-1,4-oxazepan-4-yl)pyrido[4,3-d]pyrimidin-2-yl)oxy)methyl)cyclopropyl)methyl)-2-fluoro-7-azaspiro[3.5]nonan-2-yl)methyl)piperazin-1-yl)-1-oxoisoindolin-2-yl)piperidine-2,6-dione], the DC50 at KRAS G12V was under 1 nM. At KRAS-G12V/RAF1, this compound gave a 50% inhibitory concentration (IC50) of under 20 nM. Further, the 50% growth inhibitory concentration (GI50) with SW620 cells was under 10 nM.
Regarding `CCc1c(F)ccc2cc(O)cc(-c3ncc4c(N5CCOC[C@@](C)(O)C5)nc(OCC5(CN6CCC(CN7CCN(c8ccc9c(c8)CN([C@H]8CCC(=O)NC8=O)C9=O)CC7)CC6)CC5)nc4c3F)c12` [Compound 104, (3S)-3-[5-[4-[[1-[[1-[[7-(8-ethyl-7-fluoro-3-hydroxy-1-naphthyl)-8-fluoro-4-[(6S)-6-hydroxy-6-methyl-1,4-oxazepan-4-yl]pyrido[4,3-d]pyrimidin-2-yl]oxymethyl]cyclopropyl]methyl]-4-piperidyl]methyl]piperazin-1-yl]-1-oxo-isoindolin-2-yl]piperidine-2,6-dione], the 50% degradation concentration (DC50) at KRAS G12V (cell prints a figure, not a class symbol) worked out at 2 nM. On KRAS-G12V/RAF1, this compound yielded an IC50 of 20 to 200 nM. In addition, the GI50 with SW620 cells was under 10 nM.
On KRAS G12V, `C[C@@]1(O)CCCN(c2nc(OCC3(CN4CCC5(CC4)CC(CN4CCN(c6ccc7c(c6)CN([C@H]6CCC(=O)NC6=O)C7=O)CC4)C5)CC3)nc3c(F)c(-c4cc(N)cc(Cl)c4C(F)(F)F)ncc23)C1` [Compound 135, (S)-3-(5-(4-((7-((1-(((7-(5-amino-3-chloro-2-(trifluoromethyl)phenyl)-8-fluoro-4-((R)-3-hydroxy-3-methylpiperidin-1-yl)pyrido[4,3-d]pyrimidin-2-yl)oxy)methyl)cyclopropyl)methyl)-7-azaspiro[3.5]nonan-2-yl)methyl)piperazin-1-yl)-1-oxoisoindolin-2-yl)piperidine-2,6-dione] came in with a DC50 of 1 to 10 nM. At KRAS-G12V/RAF1, this compound had an IC50 of 20 to 200 nM. Also, the GI50 in the assay with SW620 cells is under 10 nM.
Compound `CCc1cccc2cc(O)cc(-c3ncc4c(N(C)[C@@H]5C[C@H]5F)nc(OCC5(CN6CCC7(CC6)CC(CN6CCN(c8ccc9c(c8)CN([C@H]8CCC(=O)NC8=O)C9=O)CC6)C7)CC5)nc4c3F)c12` [Compound 27, (S)-3-(5-(4-((7-((1-(((7-(8-ethyl-3-hydroxynaphthalen-1-yl)-8-fluoro-4-(((1R,2R)-2-fluorocyclopropyl)(methyl)amino)pyrido[4,3-d]pyrimidin-2-yl)oxy)methyl)cyclopropyl)methyl)-7-azaspiro[3.5]nonan-2-yl)methyl)piperazin-1-yl)-1-oxoisoindolin-2-yl)piperidine-2,6-dione] showed a DC50 at KRAS G12V of 1 to 10 nM. The same compound yielded an IC50 at KRAS-G12V/RAF1 of over 200 nM. Also, the GI50 with SW620 cells was 10 to 100 nM.
The like results for `CCc1cccc2cc(O)cc(-c3ncc4c(N5CCC[C@@](C)(O)C5)nc(OCC5(CN6CCC7(CC6)CC(N6CCN(c8ccc9c(c8)C(=O)N(C8CCC(=O)NC8=O)C9=O)CC6)C7)CC5)nc4c3F)c12` (stereo partly drawn) [Compound 31, 2-(2,6-dioxopiperidin-3-yl)-5-(4-(7-((1-(((7-(8-ethyl-3-hydroxynaphthalen-1-yl)-8-fluoro-4-((R)-3-hydroxy-3-methylpiperidin-1-yl)pyrido[4,3-d]pyrimidin-2-yl)oxy)methyl)cyclopropyl)methyl)-7-azaspiro[3.5]nonan-2-yl)piperazin-1-yl)isoindoline-1,3-dione] were, in that order, 1 to 10 nM, 20 to 200 nM and under 10 nM.
Compound `CCc1c(F)ccc2cc(O)cc(-c3ncc4c(N5CCC[C@@](C)(O)C5)nc(OCC5(CN6CCC(N7CCC(N8CCN(c9ccc%10c(c9)CN([C@H]9CCC(=O)NC9=O)C%10=O)CC8)CC7)CC6)CC5)nc4c3F)c12` [Compound 147, (S)-3-(5-(4-(1′-((1-(((7-(8-ethyl-7-fluoro-3-hydroxynaphthalen-1-yl)-8-fluoro-4-((R)-3-hydroxy-3-methylpiperidin-1-yl)pyrido[4,3-d]pyrimidin-2-yl)oxy)methyl)cyclopropyl)methyl)-[1,4′-bipiperidin]-4-yl)piperazin-1-yl)-1-oxoisoindolin-2-yl)piperidine-2,6-dione] showed a DC50 at KRAS G12V of under 1 nM. The compound also registered an IC50 on KRAS-G12V/RAF1 of under 20 nM. In addition, the GI50 with SW620 cells is under 10 nM.
With `CCc1c(F)ccc2cc(O)cc(-c3ncc4c(N5CCC[C@@](C)(O)C5)nc(OCC5(CN6CCN(C7CCC8(CC7)CCN(c7ccc9c(c7)CN(C7CCC(=O)NC7=O)C9=O)CC8)CC6)CC5)nc4c3F)c12` (stereo partly drawn) [Compound 171, 3-(5-(9-(4-((1-(((7-(8-ethyl-7-fluoro-3-hydroxynaphthalen-1-yl)-8-fluoro-4-((R)-3-hydroxy-3-methylpiperidin-1-yl)pyrido[4,3-d]pyrimidin-2-yl)oxy)methyl)cyclopropyl)methyl)piperazin-1-yl)-3-azaspiro[5.5]undecan-3-yl)-1-oxoisoindolin-2-yl)piperidine-2,6-dione], the DC50 on KRAS G12V is over 100 nM. On KRAS-G12V/RAF1, this compound showed an IC50 of 20 to 200 nM. In addition, the GI50 with SW620 cells lay within 10 to 100 nM.
